From PubChem BioAssay (NCI)
Several values for one entry are separate records, joined by “and”; a condition that tells them apart may be missing. Identical values can stand only once.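 Where inhibition never reached the appropriate level, the endpoint shown equals the highest concentration tested. Otherwise, values were interpolated linearly from a five-concentration, 48-hour dose response in 96-well plates. GI50 is the concentration that inhibits growth by half. TGI denotes the concentration required for complete inhibition of growth.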

How the values were obtained:
Experiment in all cases: NCI tumour cell line growth inhibition, 48 h
786-0 renal = system: 786-0 renal
A498 renal = system: A498 renal
A549 NSCLC = system: A549 NSCLC
ACHN renal = system: ACHN renal
BT-549 breast = system: BT-549 breast
CAKI-1 renal = system: CAKI-1 renal
CCRF-CEM leukemia = system: CCRF-CEM leukemia
COLO 205 colon = system: COLO 205 colon
DLD-1 colon = system: DLD-1 colon
DMS 114 small cell lung = system: DMS 114 small cell lung
DMS 273 small cell lung = system: DMS 273 small cell lung
DU-145 prostate = system: DU-145 prostate
EKVX NSCLC = system: EKVX NSCLC
HCC-2998 colon = system: HCC-2998 colon
HCT-116 colon = system: HCT-116 colon
HCT-15 colon = system: HCT-15 colon
HL-60(TB) leukemia = system: HL-60(TB) leukemia
HOP-18 NSCLC = system: HOP-18 NSCLC
HOP-62 NSCLC = system: HOP-62 NSCLC
HOP-92 NSCLC = system: HOP-92 NSCLC
HS 578T breast = system: HS 578T breast
HT29 colon = system: HT29 colon
IGROV1 ovarian = system: IGROV1 ovarian
K-562 leukemia = system: K-562 leukemia
KM12 colon = system: KM12 colon
KM20L2 colon = system: KM20L2 colon
LOX IMVI melanoma = system: LOX IMVI melanoma
M14 melanoma = system: M14 melanoma
M19-MEL melanoma = system: M19-MEL melanoma
MALME-3M melanoma = system: MALME-3M melanoma
MCF7 breast = system: MCF7 breast
MDA-MB-231 breast = system: MDA-MB-231 breast
MDA-MB-435 = system: MDA-MB-435
MDA-N = system: MDA-N
MOLT-4 leukemia = system: MOLT-4 leukemia
NCI-H226 lung = system: NCI-H226 lung
NCI-H23 lung = system: NCI-H23 lung
NCI-H460 lung = system: NCI-H460 lung
NCI-H522 lung = system: NCI-H522 lung
NCI/ADR-RES ovarian = system: NCI/ADR-RES ovarian
OVCAR-3 ovarian = system: OVCAR-3 ovarian
OVCAR-4 ovarian = system: OVCAR-4 ovarian
OVCAR-5 ovarian = system: OVCAR-5 ovarian
OVCAR-8 ovarian = system: OVCAR-8 ovarian
P388 leukemia = system: P388 leukemia
P388/ADR leukemia = system: P388/ADR leukemia
PC-3 prostate = system: PC-3 prostate
RPMI-8226 leukemia = system: RPMI-8226 leukemia
RXF 393 renal = system: RXF 393 renal
SF-268 CNS = system: SF-268 CNS
SF-295 CNS = system: SF-295 CNS
SF-539 CNS = system: SF-539 CNS
SK-MEL-2 melanoma = system: SK-MEL-2 melanoma
SK-MEL-28 melanoma = system: SK-MEL-28 melanoma
SK-MEL-5 melanoma = system: SK-MEL-5 melanoma
SK-OV-3 ovarian = system: SK-OV-3 ovarian
SN12C renal = system: SN12C renal
SN12K1 renal = system: SN12K1 renal
SNB-19 CNS = system: SNB-19 CNS
SNB-75 CNS = system: SNB-75 CNS
SNB-78 CNS = system: SNB-78 CNS
SR leukemia = system: SR leukemia
SW-620 colon = system: SW-620 colon
T-47D breast = system: T-47D breast
TK-10 renal = system: TK-10 renal
U251 CNS = system: U251 CNS
UACC-257 melanoma = system: UACC-257 melanoma
UACC-62 melanoma = system: UACC-62 melanoma
UO-31 renal = system: UO-31 renal
XF 498 CNS = system: XF 498 CNS

`ClCCCN1CCN(CCCl)CC1` showed a TGI (786-0 renal) of 427 µM, a TGI (A498 renal) of 774 µM and a GI50 (A549 NSCLC) of 96.2 µM. For the same molecule, the TGI (A549 NSCLC) was greater than 851 µM, the GI50 (ACHN renal) was 7.09 µM and the TGI (ACHN renal) was 265 µM. For the same molecule, the TGI (BT-549 breast) was 423 µM, the TGI (CAKI-1 renal) was 358 µM and the GI50 (CCRF-CEM leukemia) was 2.54 µM. For the same molecule, the TGI (CCRF-CEM leukemia) was 437 µM, the TGI (COLO 205 colon) was 468 µM and the TGI (DLD-1 colon) was 319 µM. For the same molecule, the TGI (DMS 114 small cell lung) was 203 µM, the TGI (DMS 273 small cell lung) was 475 µM and the GI50 (DU-145 prostate) was 26.9 µM. The TGI (DU-145 prostate) was 692 µM, the TGI (EKVX NSCLC) was 873 µM and the TGI (HCC-2998 colon) was 997 µM. The TGI (HCT-116 colon) was 747 µM, the TGI (HCT-15 colon) was 790 µM and the TGI (HL-60(TB) leukemia) was 62.3 µM and 141 µM. The TGI (HOP-18 NSCLC) was greater than 1000 µM, the TGI (HOP-62 NSCLC) was 168 µM and the GI50 (HOP-92 NSCLC) was 0.0248 µM. The TGI (HS 578T breast) was 885 µM, the TGI (HT29 colon) was greater than 818 µM and the TGI (IGROV1 ovarian) was 652 µM. It also gave a GI50 (K-562 leukemia) of 82.9 µM, a TGI (K-562 leukemia) greater than 965 µM and a TGI (KM12 colon) greater than 1000 µM. It also gave a TGI (KM20L2 colon) greater than 1000 µM, a GI50 (LOX IMVI melanoma) of 23.9 µM and a TGI (LOX IMVI melanoma) of 608 µM. For the same molecule, the GI50 (M14 melanoma) was 77.2 µM, the TGI (M14 melanoma) was 872 µM and the TGI (M19-MEL melanoma) was 773 µM. The TGI (MALME-3M melanoma) was 390 µM, the TGI (MCF7 breast) was 736 µM and the TGI (MDA-MB-231 breast) was greater than 768 µM. The TGI (MDA-MB-435) was greater than 930 µM, the TGI (MDA-N) was 742 µM and the GI50 (MOLT-4 leukemia) was 1.39 µM. For the same molecule, the TGI (MOLT-4 leukemia) was 110 µM, the TGI (NCI-H226 lung) was 879 µM and the GI50 (NCI-H23 lung) was 19.5 µM. For the same molecule, the TGI (NCI-H23 lung) was 586 µM, the GI50 (NCI-H460 lung) was 7.97 µM and the TGI (NCI-H460 lung) was 356 µM. It also gave a GI50 (NCI-H522 lung) of 54.9 µM, a TGI (NCI-H522 lung) of 356 µM and a GI50 (NCI/ADR-RES ovarian) of 66.3 µM. For the same molecule, the TGI (NCI/ADR-RES ovarian) was 628 µM, the GI50 (OVCAR-3 ovarian) was 84.3 µM and the TGI (OVCAR-3 ovarian) was 430 µM. The TGI (OVCAR-4 ovarian) was 430 µM, the TGI (OVCAR-5 ovarian) was 737 µM and the TGI (OVCAR-8 ovarian) was 348 µM. It also gave a TGI (P388 leukemia) greater than 840 µM, a TGI (P388/ADR leukemia) greater than 529 µM and a TGI (PC-3 prostate) greater than 1000 µM. The TGI (RPMI-8226 leukemia) was 743 µM, the TGI (RXF 393 renal) was 439 µM and the GI50 (SF-268 CNS) was 38.6 µM. The TGI (SF-268 CNS) was greater than 892 µM, the GI50 (SF-295 CNS) was 40.8 µM and the TGI (SF-295 CNS) was 456 µM. The GI50 (SF-539 CNS) was 27.9 µM, the TGI (SF-539 CNS) was 233 µM and the TGI (SK-MEL-2 melanoma) was 760 µM. The TGI (SK-MEL-28 melanoma) was greater than 1000 µM, the TGI (SK-MEL-5 melanoma) was 647 µM and the TGI (SK-OV-3 ovarian) was 166 µM. For the same molecule, the GI50 (SN12C renal) was 8.8 µM, the TGI (SN12C renal) was 626 µM and the TGI (SN12K1 renal) was 575 µM. For the same molecule, the GI50 (SNB-19 CNS) was 99.1 µM, the TGI (SNB-19 CNS) was greater than 1000 µM and the GI50 (SNB-75 CNS) was 43.2 µM. For the same molecule, the TGI (SNB-75 CNS) was 681 µM, the TGI (SNB-78 CNS) was greater than 567 µM and the GI50 (SR leukemia) was 3.44 µM. The GI50 (SW-620 colon) was 83.7 µM, the TGI (SW-620 colon) was greater than 873 µM and the TGI (T-47D breast) was greater than 745 µM. It also gave a TGI (TK-10 renal) greater than 903 µM, a GI50 (U251 CNS) of 79.6 µM and a TGI (U251 CNS) of 543 µM. The TGI (UACC-257 melanoma) was greater than 1000 µM, the GI50 (UACC-62 melanoma) was 20 µM and the TGI (UACC-62 melanoma) was 92 µM. For the same molecule, the GI50 (UO-31 renal) was 56.4 µM, the TGI (UO-31 renal) was 493 µM and the TGI (XF 498 CNS) was 147 µM.
